Legend:
db/db mice = assay: 4-week treatment of db/db mice; assay type: in vivo
Description: Five-week old male ICR mice and db/db (C57BL BKS cg-M+/+ lepr-/-) mice were purchased from Shanghai SLAC Laboratory Animal Co., Ltd. (Shanghai, China). Mice were housed 4–5 per cage and allowed access to normal chow diet and autoclaved water freely. They were fed at a constant room temperature (25°C) with a 12-h light (7:00 AM)/dark (7:00 PM) cycle. All the mice were monitored at least daily, and no adverse events were observed. In general, the db/db mice show a high food intake at 4-week old and become obese and develop type 2 diabetes at 8-week age. Postprandial 2 h blood glucose was assessed and mice with the similar degree of hyperglycemia and body weight were randomized into different groups in order to get a similar average PBG in each group.
Diabetic mice in group of four were treated by gavage with vehicle (0.5% carboxymethylcellulose, CMC, Sigma), WB403 50, 100 mg/kg or sitagliptin at 100 mg/kg daily for 4 weeks in db/db mice (n = 5 with chow diet), and 8 weeks in HFD/STZ mice (n = 8 with HFD, additional normal mice group with chow diet). During the entire dosing period, body weight, food intake and water intake were monitored three times per week, while FBG and PBG were measured weekly. Overnight fasted mice received an oral glucose challenge at 2 g/kg and postprandial 2 h blood glucose was measured. Animals were treated and assessed in the order of the vehicle, WB403 50, 100 mg/kg and sitagliptin 100 mg/kg group.
Fig 3 Effects of WB403 treatment in db/db mice. (A, B) FBG and PBG measured every week during the 4-week treatment period. (C, D) Serum levels of HbA1c, measured at the end of intervention by Adicon Clinical Laboratories (Shanghai, China) using an immunoturbidimetric assay on Beckman AU680 biochemical analyzer. (E) Average daily food intake per mouse during the treatment period. Data was collected three times per week. (F) Average daily water intake per mouse. (G) Body weight from different groups of mice. (H) Serum levels of insulin were measured at the end of intervention. Values are mean ± SEM (n = 5). *p<0.05, **p<0.01, ***p<0.001 vs. vehicle group.

hTGR5 = molecular target: T1, hTGR5 (Homo sapiens, UniProt Q8TDU6); assay: TGR5-dependent cAMP accumulation (ELISA) in transfected 293T cells; assay type: cell-based
T1 construct: expressed in transfected cells; host or cells: 293T cells, transient transfection with pTGR5 (gift from Prof. Johan Auwerx)
T1 sequence (Q8TDU6 1-330): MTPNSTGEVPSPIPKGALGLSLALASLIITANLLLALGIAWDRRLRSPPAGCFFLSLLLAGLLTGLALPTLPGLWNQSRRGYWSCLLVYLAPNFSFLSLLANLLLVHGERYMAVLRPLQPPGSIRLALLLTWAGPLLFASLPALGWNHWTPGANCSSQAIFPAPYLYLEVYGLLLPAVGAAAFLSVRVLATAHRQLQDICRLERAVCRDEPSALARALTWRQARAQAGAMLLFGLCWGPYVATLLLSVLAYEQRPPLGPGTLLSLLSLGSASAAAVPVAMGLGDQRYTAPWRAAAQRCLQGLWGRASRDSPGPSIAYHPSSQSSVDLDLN
Description: For human TGR5 luciferase (luc) assay, 293T cells were co-transfected with pCRE-luc, pTGR5 (kind gift from Prof. Johan Auwerx, Ecole Polytechnique Fédérale de Lausanne, Lausanne, Switzerland) and pRenilla (Promega, USA). WB403 was added 5 h later. Cells were harvested after 16 h and subjected to luciferase analysis on Lumistar Optima chemiluminescent detector (BMG labtech, Germany). For cAMP testing, 293T cells transiently transfected with pTGR5 or pGPR119 (GeneCopoeia, USA) were washed by FBS-free DMEM, and stimulated with WB403 in FBS-free DMEM containing 3-isobutyl-1-methyl-xanthine (IBMX, Sigma). Cell lysates were collected 30 min later and used for cAMP ELISA assay. FLIPR Calcium 5 assay kit (Molecular Devices, USA) was used for calcium mobilization assay. […] Increase of the intracellular Ca^2+ concentration was monitored by Flexstation 3 system (Molecular Devices, USA).
The GLP-1 (active) ELISA kit was purchased from Millipore, and insulin ELISA kit was from Mercodia. For quantitative determination of cAMP, a competitive enzyme immunoassay kit from R&D system was used. […]
Fig 1 WB403 activated TGR5 and promoted active GLP-1 secretion. […] Gallbladders (GB) were removed 30 min later and volumes measured then normalized to body weight (B.W.). n = 10. **p<0.01 vs. vehicle group. […]

normal mice = assay: 4-week treatment of normal mice (hypoglycemia risk); assay type: in vivo; conditions: 100 mg/kg, 4 weeks
Description: Mice were treated for 4 weeks by WB403 and sitagliptin at 100 mg/kg. Glibenclamide at 2.5 mg/kg was used as positive control for hypoglycemia. FBG (A) and PBG (B) were measured every week. Values are mean ± SD (n = 10). *p<0.05, **p<0.01 vs. vehicle group. (TIF) Click here for additional data file.

[1] = db/db mice, 50, 100 mg/kg daily by gavage, after one week
[2] = db/db mice, end of 4-week treatment

CCc1cc(-c2nc(C)c(COCc3ccc(Br)cc3)s2)ccn1 [WB403, 4-(5-((4-bromobenzyloxy)-methyl)-4-methylthiazol-2-yl)-2-ethylpyridine]
body weight (db/db mice; db/db mice, 4-week treatment): did not vary significantly
food intake (db/db mice; db/db mice, 4-week treatment): did not vary significantly
water intake (db/db mice; db/db mice, 4-week treatment): decreased
FBG vs vehicle (db/db mice; [1]): significantly decreased
PBG vs vehicle (db/db mice; [1]): significantly decreased
HbA1c levels vs vehicle (db/db mice; [2]): significantly lower
serum insulin levels (db/db mice; [2]): higher insulin levels
Gs-coupled cAMP accumulation through TGR5 (hTGR5; 1–50 μmol/l, 30 min, IBMX, Fig 1B): dose-dependently stimulate
cAMP activity in control 293T cells (hTGR5; control 293T cells transfected with an empty plasmid): no stimulation
FBG lowering in normal mice (normal mice): did not cause significant FBG and PBG lowering
PBG lowering in normal mice (normal mice): did not cause significant FBG and PBG lowering

— publication PMC4514850, “A Novel TGR5 Activator WB403 Promotes GLP-1 Secretion and Preserves Pancreatic β-Cells in Type 2 Diabetic Mice” (PLoS ONE, 2015)
